According to article PMC1764880, “Acyl-CoA-binding and self-associating properties of a recombinant 13.3 kDa N-terminal fragment of diacylglycerol acyltransferase-1 from oilseed rape” (BMC Biochemistry, 2006):

Tests used:
BnDGAT1(1–116)His6 [1] = target: T1, BnDGAT1(1–116)His6 (Brassica napus, UniProt Q9XGR5); test: Lipidex-1000 competition binding against [[…]-14C]oleoyl-CoA; details: 8 μM free CoA displacing 19 μM [1-14C]oleoyl-CoA, 0.2 μM protein
T1 construct: gene DGAT1; N-terminal hydrophilic cytosolic fragment, residues 1-116, followed by AALE linker and C-terminal His6 (tag kept); pET26b(+), E. coli BL21(DE3), Ni-NTA purified; calculated mass 13,278 Da; self-associates to dimer and tetramer; contains peptide 21-LDRLHRRKSSSDSSN-35
T1 sequence (Q9XGR5 1-116): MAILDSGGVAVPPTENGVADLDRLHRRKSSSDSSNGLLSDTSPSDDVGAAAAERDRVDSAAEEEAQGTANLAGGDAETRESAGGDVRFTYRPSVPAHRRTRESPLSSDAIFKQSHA

BnDGAT1(1–116)His6 [2] = target: T1, BnDGAT1(1–116)His6; test: Lipidex-1000 radioligand binding, Scatchard plot; details: read-out: dissociation constant

| Structure (SMILES) | Lipidex-1000 competition binding against [1-14C]oleoyl-CoA (BnDGAT1(1–116)His6 [1]) | Kd (BnDGAT1(1–116)His6 [2]) [µM] |
| --- | --- | --- |
| CC(C)(COP(=O)(O)OP(=O)(O)OC[C@H]1O[C@@H](n2cnc3c(N)ncnc32)[C@H](O)[C@@H]1OP(=O)(O)O)[C@@H](O)C(=O)NCCC(=O)NCCS [CoA] | free CoA or oleoyl-CoA was effective in displacing a similar quantity of radiolabeled ligand | – |
| CCCCCCCC/C=C\CCCCCCCCCCCC(=O)SCCNC(=O)CCNC(=O)[C@H](O)C(C)(C)COP(=O)(O)OP(=O)(O)OC[C@H]1O[C@@H](n2cnc3c(N)ncnc32)[C@H](O)[C@@H]1OP(=O)(O)O [erucoyl-CoA] | – | ~2 |
| CCCCCCCC/C=C\CCCCCCCC(=O)SCCNC(=O)CCNC(=O)[C@H](O)C(C)(C)COP(=O)(O)OP(=O)(O)OC[C@H]1O[C@@H](n2cnc3c(N)ncnc32)[C@H](O)[C@@H]1OP(=O)(O)O [oleoyl-CoA] | – | ~17 |
